Key:
[1] = target: human catalytic domain HDAC4 protein (amino acids 648-1032) (Homo sapiens (Human), UniProt P56524); assay: Inhibition of HDAC4 catalytic domain enzymatic activity, fluorogenic substrate Boc-Lys(Tfa)-AMC; conditions: HDAC4 catalytic domain enzyme, read-out: Biochemical HDAC4 IC50
Text: Analysis of Inhibition of HDAC4 with Class IIa Histone Deacetylase (HDAC) Inhibitors
The potency of Class IIa Histone Deacetylase (HDAC) inhibitors is quantified by measuring the Histone Deacetylase 4 (HDAC4) catalytic domain enzymatic activity using the fluorogenic substrate, Boc-Lys(Tfa)-AMC. The substrate is deacetylated to Boc-Lys-AMC by HDAC4. Cleavage by trypsin results in the release of the fluorophore AMC from the deacetylated substrate. The fluorescence of the sample is directly related to the histone deacetylase activity in the sample.
Serially dilute HDAC inhibitor compounds. […] Stocks of 6 μl aliquots of the 10 mM compound in DMSO are prepared and stored at […]. From one stock aliquot of each compound to be tested and the reference compound, a 16-point serial dilution is prepared according to Table 1 using a 125 μl 16-channel Matrix multi-channel pipette (Matrix Technologies Ltd).
2 μl (200×) of each diluted solution and each control (full activity: 100% DMSO alone or full inhibition 1 mM) is stamped into V-bottomed polypropylene 384-well compound plates using either the Bravo (384-well head from Agilent) or 12.5 μl 16-channel Matrix multi-channel pipette (Matrix Technologies Ltd).
Prepare HDAC4 catalytic domain enzyme (0.2 μg/mL).
Prepare 5× ([…]) Boc-Lys(Tfa)-AMC Substrate. 5× (50 μM) substrate is prepared just prior to the addition to the assay. A 1 mM substrate stock is made by diluting a 100 mM Boc-Lys(Tfa)-AMC in DMSO solution 1:100 by adding it drop-wise to assay buffer (equilibrated to r.t.) while vortexing at slow speed to prevent precipitation. The 5× substrate is prepared by diluting the 1 mM substrate solution 1:20 by adding it drop-wise to assay buffer (equilibrated to r.t.) while vortexing at slow speed to prevent precipitation.
Prepare 3× (30 μM) Developer/Stop Solution.
Assay. 5 μl of each solution of 1:20 diluted compound from above is transferred to a clear bottomed, black, 384-well assay plate using the Bravo or the Janus (384-well MDT head from Perkin Elmer). Using a 16-channel Matrix multi-channel pipette, 35 μl of the working solution of HDAC4 catalytic domain enzyme (0.2 μg/mL in assay buffer) is transferred to the assay plate. […] The assay plate is then shaken for two minutes on an orbital shaker at 900 rpm (rotations per minute). Next the plate is incubated for 15 minutes at 37° C. The reaction is stopped by adding 25 μl of 3× (3 μM) developer/stop solution to the assay plates using either the Bravo, Janus or a 16-channel Matrix multi-channel pipette. Assay plates are then shaken for 5 minutes on an orbital shaker at 1200 rpm. Next, the assay plates are incubated at 37° C. for 1 hour in a tissue culture incubator.

[2] = test system: cellular histone deacetylase enzymatic activity in Jurkat E6-1 cells; assay: Inhibition of cellular HDAC activity in Jurkat E6-1 cells, fluorogenic substrate Boc-Lys(Tfa)-AMC; format: cell-based; conditions: Homo sapiens, read-out: Cell IC50
Text: Analysis of Inhibition of Cellular HDAC Activity with Class IIa Histone Deacetylase (HDAC) Inhibitors
The potency of Class IIa Histone Deacetylase (HDAC) inhibitors is quantified by measuring the cellular histone deacetylase enzymatic activity using the fluorogenic substrate, Boc-Lys(Tfa)-AMC. After penetration in Jurkat E6-1 cells, the substrate is deacetylated to Boc-Lys-AMC. After cell lysis and cleavage by trypsin, the fluorophore AMC is released from the deacetylated substrate only. The fluorescence of the sample is directly related to the histone deacetylase activity in the sample.
Jurkat E6.1 cell culture and plating. Jurkat E6.1 cells are cultured according to standard cell culture protocols in Jurkat E6.1 Growth Media (RPMI without phenol red, 10% FBS, 1 mM HEPES, and 1 mM Sodium Pyruvate). Jurkat E6.1 cells are counted using a Coulter Counter and resuspended in Jurkat E6.1 growth media at a concentration of 75,000 cells/35 μl. 35 μl or 75,000 cells is seeded into Greiner microtitre assay plates. The plates are then incubated at 37° C. and 5% CO2 while other assay components are being prepared.
Serially dilute HDAC inhibitor compounds. Serial dilutions of the HDAC inhibitors and control reference compound (1-(5-(3-((4-(1,3,4-oxadiazol-2-yl)phenoxy)methyl)-1,2,4-oxadiazol-5-yl)thiophen-2-yl)-2,2,2-trifluoroethanone) are made by first resuspending the lyophilized compound to a final concentration of 10 mM in […]. Stocks of 70 μl aliquots of the 10 mM compound in DMSO are prepared and stored at −20° C. From one stock aliquot of each compound to be tested and the reference compound, a 16-point serial dilution is prepared according to Table 1 using a 125 μl 16-channel Matrix multi-channel pipette.
2 μl (200×) of each diluted solution and each control (full activity: 100% DMSO alone or full inhibition 1 mM) is stamped into V-bottom polypropylene 384-well compound plates using either the Bravo, Janus, or 12.5 μl 16-channel Matrix multi-channel pipette. Each well with the 200× compound solution is diluted 1:20 by the addition of 38 μl Jurkat assay buffer+DMSO (9.5% DMSO, RPMI without phenol red, 0.09% FBS, 9 mM Hepes, and 0.9 mM Sodium Pyruvate equilibrated to r.t.)
Prepare 5× (500 μM) Boc-Lys(Tfa)-AMC substrate. 5× (500 μM) substrate is prepared just prior to the addition to the assay. The 5× substrate is prepared by diluting a 100 mM Boc-Lys(Tfa)-AMC in DMSO solution 1:200 by adding it drop-wise to Jurkat assay medium (RPMI without phenol red, 0.1% FBS, 10 mM Hepes, and 1 mM Sodium Pyruvate equilibrated to 37° C.) while vortexing at slow speed to prevent precipitation.
Prepare 3× Lysis Buffer. 10 mL of 3× lysis buffer is prepared with 8.8 mL of 3× stock lysis buffer (50 mM Tris-HCl, pH 8.0, 137 mM NaCl, 2.7 mM KCl, 1 mM MgCl2, 1% Nonidet P40 Substitute equilibrated to r.t.) and 1.2 mL of 3 mg/mL Trypsin equilibrated to r.t.
Assay. 5 μl of each solution of 1:20 diluted compound from above is transferred to the Greiner microtitre assay plates with 75,000 cells/well using the Bravo. Cells are then incubated for 2 hours at 37° C. and 5% CO2. The assay is then started by adding 10 μl of 5× (500 μM) substrate to the assay plate using either the Bravo or 16-channel Matrix multi-channel pipette. The cells are then incubated for 3 hours at 37° C. and 5% CO2. Next, 25 μl of 3× lysis buffer is added to each well using either the 125 μl 16 channel pipette or the Bravo. The assay plate is then incubated overnight (15-16 hours) at 37° C. and 5% CO2. The following day, the plates are shaken on an orbital shaker for 1 minute at 900 rpm. Finally the top read fluorescence (Excitation: 355 nm, Emission: 460 nm) is measured using PerkinElmer EnVision.

human catalytic domain HDAC4 protein (amino acids 648-1032), sequence (P56524 648-1032): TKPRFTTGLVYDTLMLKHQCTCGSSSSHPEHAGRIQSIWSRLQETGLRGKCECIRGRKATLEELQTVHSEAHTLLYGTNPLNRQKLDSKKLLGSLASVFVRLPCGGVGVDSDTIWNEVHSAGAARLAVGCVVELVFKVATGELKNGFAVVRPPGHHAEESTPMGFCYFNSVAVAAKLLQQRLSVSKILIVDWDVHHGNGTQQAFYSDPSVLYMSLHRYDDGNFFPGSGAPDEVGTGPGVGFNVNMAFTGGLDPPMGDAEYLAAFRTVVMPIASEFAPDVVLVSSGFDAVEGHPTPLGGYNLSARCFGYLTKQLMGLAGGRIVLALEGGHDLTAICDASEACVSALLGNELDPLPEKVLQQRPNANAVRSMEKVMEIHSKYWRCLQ

SMILES | IC50 [1] | IC50 [2]
Cc1ccccc1[C@H]1CC[C@@](C(=O)NO)(c2cccc(F)c2C)C1 (relative stereo) [Example 8, (±)-(1S*,3S*)1-(3-fluoro-2-methylphenyl)-N-hydroxy-3-(o-tolyl)cyclopentane carboxamide] | – | 0.48 µM
Cc1c(F)cccc1[C@]1(C(=O)NO)CC[C@@H](c2cnn(CCN3CCOCC3)c2)C1 (relative stereo) [Example 47, (1S,3R*)-1-(3-fluoro-2-methylphenyl)-N-hydroxy-3-(1-(2-morpholinoethyl)-1H-pyrazol-4-yl)cyclopentanecarboxamide] | – | 0.83 µM
CCN(CC)CCn1cc([C@@H]2CC[C@@](C(=O)NO)(c3cccc(F)c3C)C2)cn1 (relative stereo) [Example 51, (1S,3R*)-3-(1-(2-(diethylamino)ethyl)-1H-pyrazol-4-yl)-1-(3-fluoro-2-methylphenyl)-N-hydroxycyclopentanecarboxamide] | – | 0.29 µM
CCCN(CCC)C[C@@H](C)NC(=O)c1ccc([C@@H]2CC[C@@](C(=O)NO)(c3cccc(F)c3C)C2)cc1 (relative stereo) [Example 52, N—((R)-1-(dipropylamino)propan-2-yl)-4-((1R*,3S)-3-(3-fluoro-2-methylphenyl)-3-(hydroxycarbamoyl)cyclopentyl)benzamide] | – | 0.18 µM
CCCN(CCC)C[C@@H](C)NC(=O)c1ccc([C@H]2CC[C@@](C(=O)NO)(c3cccc(F)c3C)C2)cc1 (relative stereo) [Example 53, N—((R)-1-(dipropylamino)propan-2-yl)-4-((1S*,3S)-3-(3-fluoro-2-methylphenyl)-3-(hydroxycarbamoyl)cyclopentyl)benzamide] | – | 0.15 µM
Cc1c(F)cccc1[C@]1(C(=O)NO)CC[C@@H](c2ccc3sc(C4CC4)nc3c2)C1 (relative stereo) [Example 80, (1 S,3R*)-3-(2-Cyclopropylbenzo[c]thiazol-5-yl)-1-(3-fluoro-2-methylphenyl)-N-hydroxycyclopentanecarboxamide] | – | 0.38 µM
Cc1c(F)cccc1[C@]1(C(=O)NO)CC[C@H](N2CCCC2)C1 (relative stereo) [Example 88, (1 S,3S*)-1-(3-fluoro-2-methylphenyl)-N-hydroxy-3-(pyrrolidin-1-yl)cyclopentanecarboxamide] | – | > 50 µM
Cc1c(F)cccc1[C@@]1(C(=O)NO)CC[C@H](c2ccccc2)C1 (stereo in doubt) [Example 4, (1R*,3S*)-1-(3-fluoro-2-methylphenyl)-N-hydroxy-3-phenylcyclopentanecarboxamide] | – | 0.44 µM
Cc1c(F)cccc1[C@]1(C(=O)NO)CC[C@@H](c2ccccc2)C1 (stereo in doubt) [Example 5, (1S*,3R*)-1-(3-fluoro-2-methylphenyl)-N-hydroxy-3-phenylcyclopentanecarboxamide] | – | 7.85 µM

Next, values leading:

IC50 [1] | IC50 [2] | SMILES
1.4 µM | 12 µM | Cc1c(F)cccc1C1(C(=O)NO)CCC2(CCOCC2)C1 (racemic) [Example 105, (±)-2-(3-fluoro-2-methylphenyl)-N-hydroxy-8-oxaspiro[4.5]decane-2-carboxamide]
0.29 µM | 1.91 µM | Cc1c(F)cccc1[C@]1(C(=O)NO)CC[C@@H](c2cncnc2)C1 (relative stereo) [Example 2, (±)-(1S*,3R*)-1-(3-fluoro-2-methylphenyl)-N-hydroxy-3-(pyrimidin-5-yl)cyclopentanecarboxamide]
0.39 µM | 1.6 µM | Cc1c(F)cccc1[C@]1(C(=O)NO)CC[C@H](c2cncnc2)C1 (relative stereo) [Example 3, (±)-(1S*,3S*)-1-(3-fluoro-2-methylphenyl)-N-hydroxy-3-(pyrimidin-5-yl)cyclopentanecarboxamide]
– | 0.19 µM | Cc1c(F)cccc1[C@]1(C(=O)NO)CC[C@@H](c2ccc3c(c2)CN(C2CC2)C3=O)C1 (relative stereo) [Example 59, (1S,3R*)-3-(2-cyclopropyl-1-oxoisoindolin-5-yl)-1-(3-fluoro-2-methylphenyl)-N-hydroxycyclopentanecarboxamide]
– | 0.38 µM | Cc1c(F)cccc1[C@]1(C(=O)NO)CC[C@H](c2ccc3sc(C4CC4)nc3c2)C1 (relative stereo) [Example 79, (1S,3S*)-3-(2-Cyclopropylbenzo[d]thiazol-5-yl)-1-(3-fluoro-2-methylphenyl)-N-hydroxycyclopentanecarboxamide]
– | 0.16 µM | Cc1c([C@]2(C(=O)NO)CC[C@@H](c3ccc4cnn(C)c4c3)C2)ccc(F)c1F (relative stereo) [Example 86, (1S,3R*)-1-(3,4-difluoro-2-methylphenyl)-N-hydroxy-3-(1-methyl-1H-indazol-6-yl)cyclopentanecarboxamide]
– | > 50 µM | Cc1c(F)cccc1[C@]1(C(=O)NO)CC[C@@H](N2CCCC2)C1 (relative stereo) [Example 87, (1 S,3R*)-1-(3-fluoro-2-methylphenyl)-N-hydroxy-3-(pyrrolidin-1-yl)cyclopentanecarboxamide]
– | 0.61 µM | Cc1c(F)cccc1[C@]1(C(=O)NO)CC[C@H](c2ccccc2)C1 (stereo in doubt) [Example 6, (1S*,3S*)-1-(3-fluoro-2-methylphenyl)-N-hydroxy-3-phenylcyclopentanecarboxamide]
– | 1.12 µM | Cc1c(F)cccc1[C@@]1(C(=O)NO)CC[C@@H](c2ccccc2)C1 (stereo in doubt) [Example 7, (1R*,3R*)-1-(3-fluoro-2-methylphenyl)-N-hydroxy-3-phenylcyclopentanecarboxamide]

Reference: US9783488B2 (CHDI Foundation, Inc., priority 2013, dated 2017)
